Data reported in ChEMBL document CHEMBL1135959, “The discovery of SB-435495. A potent, orally active inhibitor of lipoprotein-associated phospholipase A(2) for evaluation in man” (Bioorg Med Chem Lett, 2002).
Converted amounts (≈) assume the structure as drawn.

Legend:
Cytochrome P450 3A4 = Cytochrome P450 3A4 (Homo sapiens, UniProt P08684); experiment: Inhibition of cytochrome P450 3A4; assay type: ADME
Cytochrome P450 2C19 = Cytochrome P450 2C19 (Homo sapiens, UniProt P33261); experiment: Inhibition of cytochrome P450 2C19; assay type: ADME
Homo sapiens [1] = species: Homo sapiens; experiment: Concentration required to inhibit the production of lyso-PtdCho by the compound during the copper catalyzed oxidation of human LDL; assay type: functional
[2] = Solubility in pure water at pH 4.7; assay type: physicochemical
Cytochrome P450 2C9 = Cytochrome P450 2C9 (Homo sapiens, UniProt P11712); experiment: Inhibition of cytochrome P450 2C9; assay type: ADME
[3] = Oral bioavailability in rat; assay type: ADME, organism-based; conditions: in vivo
Cytochrome P450 2D6 = Cytochrome P450 2D6 (Homo sapiens, UniProt P10635); experiment: Inhibition of cytochrome P450 2D6; assay type: ADME
Cytochrome P450 1A2 = molecular target: T1, Cytochrome P450 1A2 (Homo sapiens, UniProt P05177); experiment: Inhibition of cytochrome P450 1A2; assay type: ADME
T1 sequence (P05177 whole entry): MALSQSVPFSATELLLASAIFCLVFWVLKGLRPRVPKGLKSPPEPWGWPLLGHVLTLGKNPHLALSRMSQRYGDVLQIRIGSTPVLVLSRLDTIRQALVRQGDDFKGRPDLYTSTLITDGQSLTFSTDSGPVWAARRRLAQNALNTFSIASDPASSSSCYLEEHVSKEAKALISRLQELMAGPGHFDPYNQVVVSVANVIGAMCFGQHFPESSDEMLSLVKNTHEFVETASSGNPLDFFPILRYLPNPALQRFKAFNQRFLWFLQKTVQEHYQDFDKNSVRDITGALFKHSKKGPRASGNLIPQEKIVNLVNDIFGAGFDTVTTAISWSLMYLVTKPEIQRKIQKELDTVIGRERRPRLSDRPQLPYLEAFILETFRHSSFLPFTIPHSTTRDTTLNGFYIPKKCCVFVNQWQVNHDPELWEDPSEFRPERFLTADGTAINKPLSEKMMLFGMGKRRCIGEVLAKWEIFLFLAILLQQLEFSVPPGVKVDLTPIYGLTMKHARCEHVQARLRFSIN

[4] = Permeability of compound was evaluated in an artificial membrane permeability assay; assay type: ADME, cell membranes; conditions: PAMPA; read-out: Permeability (converted)
Homo sapiens [5] = species: Homo sapiens; experiment: Concentration required to inhibit the subsequent monocyte chemotaxis by the compound during the copper catalyzed oxidation of human LDL; assay type: functional
[6] = Oral bioavailability in dog; assay type: ADME, organism-based, Canis lupus familiaris; conditions: in vivo, read-out: Bioavailabiility
[7] = molecular target: T2, Platelet-activating factor acetylhydrolase (Homo sapiens, UniProt Q13093); experiment: Inhibitory concentration against Lipoprotein-Associated Phospholipase A2 (Lp-PLA2) was estimated
T2 sequence (Q13093 whole entry): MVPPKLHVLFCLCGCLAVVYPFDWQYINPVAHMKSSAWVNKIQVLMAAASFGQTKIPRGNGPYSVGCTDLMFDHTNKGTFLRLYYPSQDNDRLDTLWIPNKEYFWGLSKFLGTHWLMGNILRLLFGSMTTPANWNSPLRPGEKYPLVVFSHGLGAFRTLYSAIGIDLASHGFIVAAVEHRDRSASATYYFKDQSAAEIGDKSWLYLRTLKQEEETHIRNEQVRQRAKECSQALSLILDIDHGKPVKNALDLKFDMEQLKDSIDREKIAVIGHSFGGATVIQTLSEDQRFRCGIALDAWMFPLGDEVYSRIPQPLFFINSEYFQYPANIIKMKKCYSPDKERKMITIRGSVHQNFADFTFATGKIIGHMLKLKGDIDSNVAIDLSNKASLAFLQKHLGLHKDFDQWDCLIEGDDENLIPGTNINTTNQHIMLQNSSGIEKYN

[8] = Acid dissociation constant was determined for the compound; assay type: ADME

Sequence of Cytochrome P450 3A4 (P08684 whole entry): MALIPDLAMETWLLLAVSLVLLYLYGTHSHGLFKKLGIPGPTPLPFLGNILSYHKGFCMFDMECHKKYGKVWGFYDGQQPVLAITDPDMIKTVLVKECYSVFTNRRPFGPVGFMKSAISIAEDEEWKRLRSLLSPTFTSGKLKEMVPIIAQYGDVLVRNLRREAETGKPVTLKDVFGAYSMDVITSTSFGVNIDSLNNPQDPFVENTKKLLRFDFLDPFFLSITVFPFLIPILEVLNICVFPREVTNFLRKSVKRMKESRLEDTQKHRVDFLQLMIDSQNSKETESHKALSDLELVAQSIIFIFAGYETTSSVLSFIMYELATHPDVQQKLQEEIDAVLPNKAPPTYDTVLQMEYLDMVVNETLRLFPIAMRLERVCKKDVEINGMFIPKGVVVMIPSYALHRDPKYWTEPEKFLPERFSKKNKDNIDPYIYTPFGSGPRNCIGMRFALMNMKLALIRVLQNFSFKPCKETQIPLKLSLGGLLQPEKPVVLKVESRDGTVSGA
Sequence of Cytochrome P450 2D6 (P10635 whole entry): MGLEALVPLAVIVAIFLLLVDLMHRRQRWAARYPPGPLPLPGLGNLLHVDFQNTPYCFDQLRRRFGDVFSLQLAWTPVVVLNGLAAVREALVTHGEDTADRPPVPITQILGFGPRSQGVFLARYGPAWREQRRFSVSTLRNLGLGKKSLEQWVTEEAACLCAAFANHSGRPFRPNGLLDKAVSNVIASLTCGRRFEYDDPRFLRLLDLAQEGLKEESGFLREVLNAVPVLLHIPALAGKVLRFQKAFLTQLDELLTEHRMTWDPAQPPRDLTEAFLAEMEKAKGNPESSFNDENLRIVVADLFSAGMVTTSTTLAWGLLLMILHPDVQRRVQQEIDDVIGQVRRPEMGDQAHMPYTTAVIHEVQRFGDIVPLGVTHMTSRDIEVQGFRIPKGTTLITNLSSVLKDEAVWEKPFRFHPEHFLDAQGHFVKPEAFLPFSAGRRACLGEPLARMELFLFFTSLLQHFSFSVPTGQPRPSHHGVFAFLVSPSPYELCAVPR
Sequence of Cytochrome P450 2C19 (P33261 whole entry): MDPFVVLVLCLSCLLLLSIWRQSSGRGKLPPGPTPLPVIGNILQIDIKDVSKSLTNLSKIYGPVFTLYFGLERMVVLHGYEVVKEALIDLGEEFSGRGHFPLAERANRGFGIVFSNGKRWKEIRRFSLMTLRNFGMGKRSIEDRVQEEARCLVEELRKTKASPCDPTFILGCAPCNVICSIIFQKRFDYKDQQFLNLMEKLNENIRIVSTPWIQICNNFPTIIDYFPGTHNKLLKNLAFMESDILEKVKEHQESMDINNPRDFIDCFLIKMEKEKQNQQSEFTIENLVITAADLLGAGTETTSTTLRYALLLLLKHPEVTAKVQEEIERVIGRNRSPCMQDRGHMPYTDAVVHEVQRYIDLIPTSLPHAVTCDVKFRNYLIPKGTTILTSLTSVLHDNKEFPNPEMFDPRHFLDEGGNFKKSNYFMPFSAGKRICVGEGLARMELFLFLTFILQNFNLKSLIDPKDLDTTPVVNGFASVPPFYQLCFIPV
Sequence of Cytochrome P450 2C9 (P11712 whole entry): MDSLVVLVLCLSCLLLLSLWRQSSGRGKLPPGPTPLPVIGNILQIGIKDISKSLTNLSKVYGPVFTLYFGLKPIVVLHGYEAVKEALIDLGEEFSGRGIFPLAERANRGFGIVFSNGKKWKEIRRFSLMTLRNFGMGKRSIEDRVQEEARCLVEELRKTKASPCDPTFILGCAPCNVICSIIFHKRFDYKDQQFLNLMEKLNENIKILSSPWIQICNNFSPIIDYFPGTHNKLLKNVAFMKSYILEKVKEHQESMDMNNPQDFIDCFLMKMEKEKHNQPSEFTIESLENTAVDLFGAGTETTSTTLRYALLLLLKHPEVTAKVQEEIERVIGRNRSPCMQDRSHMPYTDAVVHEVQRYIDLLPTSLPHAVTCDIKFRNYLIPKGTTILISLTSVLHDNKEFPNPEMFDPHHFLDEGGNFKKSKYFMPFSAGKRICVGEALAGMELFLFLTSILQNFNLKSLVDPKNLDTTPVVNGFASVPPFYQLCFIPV

| SMILES | IC50 (Cytochrome P450 3A4) [µM] | Papp [4] [×10⁻⁶ cm/s] | IC50 [7] [µM] | further results |
| --- | --- | --- | --- | --- |
| COc1ncc(Cc2cn(CC(=O)N(CCN(C)C)Cc3ccc(-c4ccc(Cl)cc4)cc3)c(SCc3ccc(F)cc3)nc2=O)cn1 |  |  | 0.0002 |  |
| COc1ncc(Cc2cn(CC(=O)N(CC(=O)O)Cc3ccc(-c4ccc(Cl)cc4)cc3)c(SCc3ccc(F)cc3)nc2=O)cn1 |  |  | 0.001 |  |
| CCN(CC)CCCN(Cc1ccc(-c2ccc(Cl)cc2)cc1)C(=O)Cn1cc(Cc2cnn(C)c2)c(=O)nc1SCc1ccc(F)cc1 | 2 | < 0.278 |  | pKa [8]: 9 |
| CN1CCN(CCCN(Cc2ccc(-c3ccc(Cl)cc3)cc2)C(=O)Cn2cc(Cc3cnn(C)c3)c(=O)nc2SCc2ccc(F)cc2)CC1 | 10 | < 0.278 |  |  |
| Cn1cc(Cc2cn(CC(=O)N(CCN3CCCC3)Cc3ccc(-c4ccc(Cl)cc4)cc3)c(SCc3ccc(F)cc3)nc2=O)cn1 | 6 | 1.11 |  |  |
| COc1ncc(Cc2cn(CC(=O)N(CC(=O)N(C)C)Cc3ccc(-c4ccc(Cl)cc4)cc3)c(SCc3ccc(F)cc3)nc2=O)cn1 | < 0.5 |  | 0.0002 |  |
| CCN(CC)CCN(Cc1ccc(-c2ccc(Cl)cc2)cc1)C(=O)Cn1cc(Cc2cnn(C)c2)c(=O)nc1SCc1ccc(F)cc1 | 5 | 8.06 |  | pKa [8]: 8.3 |
| COc1ncc(Cc2cn(CC(=O)N(CCO)Cc3ccc(-c4ccc(Cl)cc4)cc3)c(SCc3ccc(F)cc3)nc2=O)cn1 |  |  | 0.0002 |  |

Further lines, with some results ahead:

| IC50 (Cytochrome P450 3A4) [µM] | Papp [4] [×10⁻⁶ cm/s] | IC50 [7] [µM] | SMILES | further results |
| --- | --- | --- | --- | --- |
| 10 | 4.72 |  | CCN(CC)CCN(Cc1ccc(-c2ccc(C(F)(F)F)cc2)cc1)C(=O)Cn1cc(Cc2cnn(C)c2)c(=O)nc1SCc1ccc(F)cc1 | IC50 (Cytochrome P450 2C19): > 40 µM; IC50 (Homo sapiens [1]): 0.023 µM; solubility [2]: 5000 µg/mL (≈ 6.94 mM); IC50 (Cytochrome P450 2C9): 100 µM; bioavailability [3]: 13%; IC50 (Cytochrome P450 2D6): 37 µM; IC50 (Cytochrome P450 1A2): 100 µM; IC50 (Homo sapiens [5]): 0.01 µM; bioavailability [6]: 24% |
| 19 | 0.556 |  | Cn1cc(Cc2cn(CC(=O)N(CCO)Cc3ccc(-c4ccc(Cl)cc4)cc3)c(SCc3ccc(F)cc3)nc2=O)cn1 |  |
| 10 | 18.9 | 0.00017 | Cn1cc(Cc2cn(CC(=O)N(CCN3CCCCC3)Cc3ccc(-c4ccc(C(F)(F)F)cc4)cc3)c(SCc3ccc(F)cc3)nc2=O)cn1 |  |
| 8 | 0.556 |  | CN(C)CCN(Cc1ccc(-c2ccc(Cl)cc2)cc1)C(=O)Cn1cc(Cc2cnn(C)c2)c(=O)nc1SCc1ccc(F)cc1 |  |
| > 0.5 |  |  | CN(C)C(=O)CN(Cc1ccc(-c2ccc(Cl)cc2)cc1)C(=O)Cn1cc(Cc2cnn(C)c2)c(=O)nc1SCc1ccc(F)cc1 |  |
| 15 | 0.556 |  | Cn1cc(Cc2cn(CC(=O)N(CCN)Cc3ccc(-c4ccc(Cl)cc4)cc3)c(SCc3ccc(F)cc3)nc2=O)cn1 |  |
| 17 | 0.278 |  | CN(C)CCCN(Cc1ccc(-c2ccc(Cl)cc2)cc1)C(=O)Cn1cc(Cc2cnn(C)c2)c(=O)nc1SCc1ccc(F)cc1 |  |
| 30 | < 0.278 |  | CN(C)CCN(Cc1ccc(-c2ccc(C(F)(F)F)cc2)cc1)C(=O)Cn1cc(Cc2cnn(C)c2)c(=O)nc1SCc1ccc(F)cc1 |  |
|  |  | 0.0001 | Cn1cc(Cc2cn(CC(=O)N(CC(=O)N3CCOCC3)Cc3ccc(-c4ccc(C(F)(F)F)cc4)cc3)c(SCc3ccc(F)cc3)nc2=O)cn1 |  |
| 31 | < 0.278 |  | Cn1cc(Cc2cn(CC(=O)N(CC(=O)O)Cc3ccc(-c4ccc(C(F)(F)F)cc4)cc3)c(SCc3ccc(F)cc3)nc2=O)cn1 |  |
